# Laboratory results as given in patent US9556225B2, “Peptide stimulator of cell survival and proliferation” (União Química Farmacêutica Nacional S/A, priority 2014, dated 2017).
# Where no end group is shown, it is not given here.
# Assays:
# [1] = system: FN1 fibroblasts; experiment: Cell cycle phases by propidium iodide flow cytometry; assay type: cell-based, human; conditions: 48 hours
# Description: The distribution of cells in the various cell cycle phases was determined by the content or amount of propidium iodide (PI) incorporated into the cell, measured by flow cytometry (Vindelov, L. L., I. J. Christensen, and N. I. Nissen, Standardization of high-resolution flow cytometric DNA analysis by the simultaneous use of chicken and trout red blood cells as internal reference standards. Cytometry, 1983. 3(5): p. 328-31). […] After treatment, the FN1 cell suspensions were resuspended in 70% ethanol and kept in a freezer at −20° C. for subsequent analysis of cell cycle phases. At the time of the experiment, cells were incubated in a PBS solution: 950 μl of PBS, 40 μl of PI (1 mg/ml) and 10 μl of Rnase: (10 mg/ml), to assess the quantity and integrity of DNA in the cell cycle phases. The results obtained by the acquisition program CellQuest™ acquired on a FACScalibur™ flow cytometer (Becton and Dickson, USA) were analyzed by FACS ModFit™ 2.8. The DNA content was expressed as mean percentage±standard error of the mean (SEM) of 3 independent experiments (Student's t test) of cells distributed in the different cell cycle phases: apoptotic cells, G0/G1, S and G2/M.
# [2] = system: FN1 fibroblasts; experiment: Ultrastructure of fibroblasts by transmission electron microscopy (TEM); assay type: cell-based, human; conditions: 1% FBS, 50 ng/ml, 48 hours
# Excerpt: Severe morphological changes in normal fibroblasts are observed after serum deprivation conditions consistent with those of apoptotic cell death. […] TEM provides ultra-structural evidence about the nature of cell death (Kulkarni, G. V. and C. A. McCulloch, Serum deprivation induces apoptotic cell death in a subset of Balb/c 3T3 fibroblasts. J Cell Sci, 1994. 107 (Pt 5): p. 1169-79).
# Cells were washed 3 times with PBS and gently collected in a tube with the help of a cell scraper. The cell suspension was centrifuged, and the cell button re-suspended in a solution of 3% glutaraldehyde and 2% paraformaldehyde diluted in sodium cacodylate. The cell button was post-fixed in 1% solution of osmium tetroxide for 1 hour, washed with PBS and distilled water and dehydrated in a graded ethanol series (30, 60, 70, 80 and 100%). Finally, the epoxy resin was mixed with warm ethanol (1:1) for infiltration, and only the resin was used for the incorporation of cells (60° C./48 h). Ultrathin sections (50 nm) were cut with an ultramicrotome (Leica Ultracut™ UCT) and stained with 5% uranyl acetate in 50% ethanol and 2% aqueous solution of citrate. The obtained sections were photographed using a TEM (LEO™ 906E, Zeiss, […]) at an accelerating voltage of 80 kV.
# [3] = system: Human umbilical vein endothelial cells (HUVEC); experiment: MTT cytotoxicity and cell viability assay; assay type: cell-based; conditions: 72 h; for cell viability (MTT), significance relative to untreated control (1% FBS): p<0.01
# Description: For in vitro cell culture tests, the peptide (previously dissolved in water and stored at −20° C.) was resuspended, at the desired concentration, in culture medium supplemented with fetal bovine serum (FBS). The concentration of FBS was selected depending on the requirements of each experiment.
# The MTT method was used (Mosmann, T., Rapid colorimetric assay for cellular growth and survival: application to proliferation and cytotoxicity assays. J Immunol Methods, 1983. 65(1-2): p. 55-63). The viability test was performed in culture plates of 96 wells. […] After 72 h, the supernatant was discarded and the cells washed twice with phosphate buffered saline (PBS) at pH 7.4 and incubated at 37° C. for 3 h with 100 μl of 0.5 mg/ml MTT reagent (3-(4,5-dimethylthiazol-2-yl)-2,5-diphenyl tetrazolium bromide) in PBS. The supernatant was removed and the reaction was stopped with 100 μl of dimethyl sulfoxide (DMSO). Absorbance values were determined at 540 nm using a SpectraMax™ 190 automatic plate reader (Molecular Devices, USA).
# The results were expressed as a percentage of cell viability relative to the untreated control at time zero (initial number of cells). Absorbance values were determined at 540 nm. The results were expressed as the average ±standard error of the mean (SEM) of 5 independent experiments. Statistical significance between the groups were determined by a one-way ANOVA test (*: p<0.05, **: p<0.01).
# [4] = system: collagen I; experiment: Extracellular matrix molecules by fluorescence microscopy; assay type: cell-based, human; conditions: FN1 cells, 50 ng/ml, 48 h, 10% FBS
# Excerpt: (§1) Previous studies have reported the importance of extracellular matrix components for maintaining cell survival of serum-deprived cells and that survival is enhanced by cell-cell contact. To confirm the synthesis of extracellular matrix molecules, fibroblast cultures were marked with antibodies specific for laminin and fibronectin following treatment with the synthetic peptide.
# (§2) After treatment, the medium was removed and cells were washed with PBS and fixed with 3.7% paraformaldehyde for 10 minutes. Triton X-100 (0.1%) was added for 15 minutes for permeabilization of the plasma membrane, followed by addition of the primary antibody and incubation for 12 hours (overnight) in the dark at 4° C. The cells were washed with PBS, the secondary antibody was added and the cells were kept for 1 hour at room temperature in the dark. Antibodies were diluted according to the manufacturer's recommendation. After washing, the […] cell nuclei were stained with 4′,6-diamidino-2-phenylindole (DAPI) reagent (Invitrogen) and slides were mounted on coverslips containing 4 μl of antifade solution (Vectashield™, Vector-H1000, that serves to preserve fluorescence). Cells were viewed with an Axio™ Imager A1 fluorescence microscope (Carl Zeiss, Germany).
# (§3) Primary antibodies in blocking buffer: 10% FBS, 1% BSA in TBS (0.1% Triton X-100 in PBS):
# Mouse monoclonal to Collagen type I [Col-I] (abcam): 1/1000
# [5] = system: fibronectin; experiment: as above; assay type: cell-based, human; conditions: FN1 cells, 50 ng/ml, 48 h, 10% FBS
# Excerpt: as §1, §2, §3
# Rabbit polyclonal to Fibronectin (abcam): 2 μg/ml
# [6] = system: human dermal fibroblasts (FN1); experiment: Cell proliferation by CFDA-SE staining, flow cytometry; assay type: cell-based; conditions: FN1 cells; for proliferation / cytoprotection (CFDA-SE staining): 1% FBS, 48 hours; for proliferation rate (CFDA-SE staining): 10% FBS, 48 h, p<0.001 versus control 10% FBS
# Description: Quantitative assessment of cell proliferation was performed by staining cells with carboxyfluorescein succinimidyl ester (CFDA-SE), as described previously (Asquith, B., et al., Quantifying lymphocyte kinetics in vivo using carboxyfluorescein diacetate succinimidyl ester (CFSE). Proc Biol Sci, 2006. 273(1590): p. 1165-71; Lyons, A. B., Analysing cell division in vivo and in vitro using flow cytometric measurement of CFSE dye dilution. J Immunol Methods, 2000. 243(1-2): p. 147-54). CFDA-SE is a lipophilic dye which reacts with amino groups of peptides and proteins, forming a stable amide linkage, which can be detected using flow cytometry analysis. The CFDA-SE passively diffuses into cells. It is colorless and nonfluorescent until its acetate groups are cleaved by intracellular esterases to produce a highly fluorescent, amine reactive succinimidyl ester of carboxyfluorescein, which is well conserved and can be fixed with aldehyde fixatives. The excess reagent and unconjugated by products passively diffuse into the extracellular environment where they can be washed away. When parent cells divide, CFDA-SE dye is equally distributed to the daughter cells, which therefore have half of the fluorescence intensity of the parents. The reduction of fluorescence intensity of cell generations in cell proliferation is easily detected by flow cytometry.
# For the assay, human dermal fibroblasts (FN1) cells were seeded in six-well plates (1×10^4 cells/well), incubated with […] CFDA—SE diluted in PBS, and cultured at 37° C. with 5% CO2 for 15 minutes protected from light, according to the manufacturer's instructions (Vybrant® CFDA SE Cell Tracer Kit, MolecularProbes). […] Subsequently, the cells were trypsinized and the cell buttons resuspended in 300 μl of FACS buffer with 2% paraformaldehyde and kept in the refrigerator until the moment of reading. Cell proliferation by CFDA—SE was estimated by the reduction in cell fluorescence. Fluorescence was determined for excitation at λ=492 nm and for emission at λ=517 nm (10000 events per sample) in a FACScalibur™ flow cytometry system (Becton and Dickson) using the CellQuest™ software. The parameters FSC (size) and SSC (granularity/complexity) was detected in linear scale and FL1-H on a logarithmic scale. Proliferation was analyzed using the program ModFit LT™ 2.0 (Verity Software House, Topsham, Me., USA). The figures are expressed as the average ±standard error of the mean (SEM) of 5 independent experiments (Student's t test).
# [7] = system: vitronectin; experiment: Extracellular matrix molecules by fluorescence microscopy; assay type: cell-based, human; conditions: FN1 cells, 50 ng/ml, 48 h, 10% FBS
# Excerpt: as §1, §2, §3
# Mouse monoclonal [VN58-1] […]
# [8] = system: laminin; experiment: as above; assay type: cell-based, human; conditions: FN1 cells, 50 ng/ml, 48 h, 10% FBS
# Excerpt: as §1, §2, §3
# Rabbit polyclonal to Laminin alpha 4 (abcam): 1/500
# [9] = 125 μg/ml, 25° C., sodium phosphate buffer, pH 6.0 to 8.0, 24 hours
# Description: Measurement of the structural integrity of the peptide was carried out using sodium phosphate buffer at various pH values (6.0, 6.4, 6.8, 7.0, 7.4, 8.0) containing 125 μg/ml of the peptide. Peptide solutions were incubated overnight at room temperature (25° C.). Analyses of circular dichroism (CD) were performed on a J-810 spectropolarimeter controlled by Spectra Manager™ software (JASCO), using cuvettes with optical path length of 0.1 cm (Biotechnology Center—Instituto Butantan). The CD spectra were recorded in the range 183-260 nm every 0.1 nm. The spectrum of each sample was subtracted from the spectrum of the buffer without peptide.
# [10] = system: FN1 cells; experiment: Detection of intracellular reactive oxygen and nitrogen species (ROS); assay type: cell-based, human; conditions: for ROS production: serum-deprived (1% FBS)
# Description: The detection of reactive species was performed by the ROS Detection Kit (Enzo Life Sciences, Plymouth Meeting, Pa.) according to the manufacturer's instructions. This assay allows detecting ROS production in living cells by flow cytometry. The dye detection reagent reacts with hydrogen peroxide, peroxynitrite and hydroxyl radicals. FN1 cells at a density of 10^6/ml were plated and cultured in 6-well plates for 24 hours in incubator containing 5% CO2 at 37° C. […] Then, the cells were washed with wash buffer supplied by the manufacturer and centrifuged at 1500 rpm for 10 minutes. The supernatant was discarded and the cell button resuspended in 200 μl of PBS. The fluorescence was determined at λ=485 nm for excitation and emission λ=590 nm for a FACScalibur™ flow cytometry system using CellQuest™ software with the acquisition of 10,000 events having as parameters FSC (size) and SSC (granularity/complexity) linear scale and FL1/FL2 on logarithmic scales. The results were expressed as the mean±SEM (standard error of the mean) of 3 independent experiments.
# [11] = 25 ng/ml, p<0.05 versus control 1% FBS
# [12] = 50 ng/ml, p<0.001 versus control 1% FBS
sequence,measurement,setting,value
DYFKDGKDVN [LONO-Q],apoptotic cells (fragmented DNA),"[1]; 1% FBS, 50 ng/ml, n=3, mean±SEM, p<0.01 vs. control 1% FBS",8.1±1.1%
same,cells in S phase of the cell cycle,"[1]; 1% FBS, 50 ng/ml, n=3, mean±SEM, p<0.05 vs. control 1% FBS",17.2±1.5%
same,"S phase of the cell cycle, dose dependence","[1]; 1% FBS, 25 or 50 ng/ml",apparent dose-dependent increase of the S phase
same,cells in G2/M,"[1]; 10% FBS, 50 ng/ml, n=3, mean±SEM, p<0.05 vs. control 10% FBS",18.4±2.5%
same,morphological changes induced by serum deprivation (TEM),[2],retards most of the effects observed in serum deprived cells
same,"cellular proliferation (MTT), significance","[3]; 10% FBS, 50 ng/ml, p<0.05",statistically significant results
same,cell viability (MTT),"[3]; HUVECs, 1% FBS (serum deprivation), dose response",stimulated cell viability in a dose-dependent manner
same,"cell viability (MTT), significance relative to untreated control (1% FBS)","[3]; HUVECs, 25 ng/ml",statistically significant results
same,"cell viability (MTT), significance relative to untreated control (1% FBS)","[3]; HUVECs, 50 ng/ml",statistically significant results
same,cellular proliferation (MTT),"[3]; normal conditions (10% FBS), dose response",stimulated the cellular proliferation in a dose-dependent manner
same,production of collagen I,[4],increased amounts
same,production of fibronectin,[5],increased amounts
same,proliferation / cytoprotection (CFDA-SE staining),[6]; [11],significant cytoprotection
same,proliferation / cytoprotection (CFDA-SE staining),[6]; [12],significant cytoprotection
same,proliferation rate (CFDA-SE staining),[6]; 25 ng/ml,statistically significant increase in the proliferation rate
same,proliferation rate (CFDA-SE staining),[6]; 50 ng/ml,statistically significant increase in the proliferation rate
same,production of vitronectin,[7],increased amounts
same,production of laminin,[8],increased amounts
same,Stability (circular dichroism),[9],remains stable
same,ROS generation,[10]; normal cell growth (10% FBS),no statistically significant decrease in ROS generation
same,ROS production,[10]; [11],statistically significant decrease of ROS production
same,ROS production,[10]; [12],statistically significant decrease of ROS production
